What was measured:
Type in all cases: in vivo
[1] = tested on: weeds; test: Pre-emergence test (greenhouse), activity against weeds; conditions: in words
Summary of the method: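 Compound formulated in acetone with alkylaryl polyglycol ether emulsifier, diluted in water, and watered onto soil about 24 h after sowing, dosed by application rate per unit area. Damage rated after three weeks as % versus untreated control (0% = no action).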

[2] = tested on: Maize; test: Pre-emergence test/Greenhouse, Maize
Summary of the method: (§1)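 Percent damage relative to untreated control plants, scored three weeks after treatment, is the read-out (0% meaning no effect). Treatment consisted of watering the soil with an emulsified aqueous preparation roughly 24 h after seeds were sown, at constant water volume per area.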

[3] = tested on: Matricaria; test: Pre-emergence test/Greenhouse, Matricaria; conditions: after three weeks
Summary of the method: as §1

[4] = tested on: Sorghum; test: Post-emergence test/greenhouse, Sorghum; conditions: greenhouse, after three weeks
Experimental: (§2) Solvent: 5 parts by weight of acetone
(§3) Emulsifier: 1 part by weight of alkylaryl polyglycol ether
(§4) To produce a suitable preparation of active compound, 1 part by weight of active compound is mixed with the stated amount of solvent, the stated amount of emulsifier is added and the concentrate is diluted with water to the desired concentration.
(§5) Test plants which have a height of 5-15 cm are sprayed with the preparation of the active compound in such a way as to apply the particular amounts of active compound desired per unit area. The concentration of the spray liquor is chosen so that the particular amounts of active compound desired are applied in 2000 l of water/ha.
(§6) After three weeks, the degree of damage to the plants is rated in % damage in comparison to the development of the untreated control.
(§7) 0%=no action (like untreated control)

[5] = tested on: Ambrosia; test: Pre-emergence test/Greenhouse, Ambrosia; conditions: after three weeks
Summary of the method: as §1

[6] = tested on: Amaranthus; test: Post-emergence test/greenhouse, Amaranthus; conditions: greenhouse, after three weeks
Experimental: as §2, §3, §4, §5, §6, §7

[7] = tested on: Stellaria; test: Post-emergence test/greenhouse, Stellaria; conditions: greenhouse, after three weeks
Experimental: as §2, §3, §4, §5, §6, §7

[8] = tested on: Solanum; test: Pre-emergence test/Greenhouse, Solanum; conditions: after three weeks
Summary of the method: as §1

[9] = tested on: Digitaria; test: Post-emergence test/greenhouse, Digitaria; conditions: greenhouse, after three weeks
Experimental: as §2, §3, §4, §5, §6, §7

[10] = tested on: weeds; test: Post-emergence test (greenhouse), activity against weeds; conditions: in words
Experimental: as §2, §3, §4, §5, §6, §7

[11] = tested on: Matricaria; test: Post-emergence test/greenhouse, Matricaria; conditions: greenhouse, after three weeks
Experimental: as §2, §3, §4, §5, §6, §7

[12] = tested on: Poa; test: Pre-emergence test/Greenhouse, Poa; conditions: after three weeks
Summary of the method: as §1

[13] = tested on: Echinochloa; test: Post-emergence test/greenhouse, Echinochloa; conditions: greenhouse, after three weeks
Experimental: as §2, §3, §4, §5, §6, §7

[14] = tested on: Lolium; test: Pre-emergence test/Greenhouse, Lolium; conditions: after three weeks
Summary of the method: as §1

[15] = tested on: Sorghum; test: Pre-emergence test/Greenhouse, Sorghum; conditions: after three weeks
Summary of the method: as §1

[16] = tested on: Lolium; test: Post-emergence test/greenhouse, Lolium; conditions: greenhouse, after three weeks
Experimental: as §2, §3, §4, §5, §6, §7

[17] = tested on: Maize; test: Post-emergence test/greenhouse, Maize; conditions: greenhouse, after three weeks
Experimental: as §2, §3, §4, §5, §6, §7

[18] = tested on: Soya beans; test: Pre-emergence test/Greenhouse, Soya beans; conditions: in vivo
Summary of the method: as §1

[19] = tested on: Gallium; test: Post-emergence test/greenhouse, Gallium; conditions: greenhouse, after three weeks
Experimental: as §2, §3, §4, §5, §6, §7

| SMILES | activity against weeds [1] | degree of damage to the plants (% damage vs untreated control), Matricaria ([3]; 30 g of ai./ha) | degree of damage to the plants (% damage vs untreated control), Ambrosia ([5]; 30 g of ai./ha) | degree of damage to the plants (% damage vs untreated control), Solanum ([8]; 30 g of ai./ha) | activity against weeds [10] | degree of damage to the plants (% damage vs untreated control), Poa ([12]; 30 g of ai./ha) | degree of damage to the plants (% damage vs untreated control), Lolium ([14]; 30 g of ai./ha) | degree of damage to the plants (% damage vs untreated control), Sorghum ([15]; 30 g of ai./ha) | degree of damage to the plants (% damage vs untreated control), Maize ([2]; in vivo) | degree of damage to the plants (% damage vs untreated control), Soya beans [18] | degree of damage, Gallium ([19]; 60 g of ai./ha) | degree of damage, Sorghum ([4]; 60 g of ai./ha) | degree of damage, Stellaria ([7]; 60 g of ai./ha) | degree of damage, Digitaria ([9]; 60 g of ai./ha) | degree of damage, Matricaria ([11]; 60 g of ai./ha) | degree of damage, Echinochloa ([13]; 60 g of ai./ha) | degree of damage, Lolium ([16]; 60 g of ai./ha) | degree of damage, Maize ([17]; 60 g of ai./ha) | degree of damage, Amaranthus ([6]; 60 g of ai./ha) | also measured |
| --- | --- | --- | --- | --- | --- | --- | --- | --- | --- | --- | --- | --- | --- | --- | --- | --- | --- | --- | --- | --- |
| CCOc1nn(C(=O)NS(=O)(=O)c2c(C)csc2C(=O)OC)c(=O)n1C [Example 1, 5-ethoxy-4-methyl-2-(4-methyl-2-methoxycarbonyl-thien-3-yl-sulphonylaminocarbonyl)-2,4-dihydro-3H-1,2,4-triazol-3-one] | very strong activity against weeds | 95% | 95% | 95% | very strong activity against weeds | 95% | 95% | 90% |  |  |  |  |  |  |  |  |  |  |  | degree of damage to the plants (% damage vs untreated control), Maize ([2]; pre-emergence, 30 g of ai./ha, after three weeks): 10%; degree of damage, Sorghum ([4]; 125 g of ai./ha): 95%; degree of damage, Amaranthus ([6]; 125 g of ai./ha): 100%; degree of damage, Stellaria ([7]; 125 g of ai./ha): 100%; degree of damage, Digitaria ([9]; 125 g of ai./ha): 95%; degree of damage, Matricaria ([11]; 125 g of ai./ha): 100%; degree of damage, Echinochloa ([13]; 125 g of ai./ha): 95%; degree of damage, Lolium ([16]; 125 g of ai./ha): 90%; degree of damage, Maize ([17]; 125 g of ai./ha): 60% |
| CCc1nn(C(=O)NS(=O)(=O)c2c(C)csc2C(=O)OC)c(=O)n1C [Example 5] | very strong activity against weeds | 95% | 95% | 95% | very strong activity against weeds | 95% | 95% | 90% | 0% | 20% |  |  |  |  |  |  |  |  |  | degree of damage, Sorghum ([4]; 30 g of ai./ha): 90%; degree of damage, Amaranthus ([6]; 30 g of ai./ha): 100%; degree of damage, Stellaria ([7]; 30 g of ai./ha): 90%; degree of damage, Digitaria ([9]; 30 g of ai./ha): 95%; degree of damage, Matricaria ([11]; 30 g of ai./ha): 95%; degree of damage, Echinochloa ([13]; 30 g of ai./ha): 80%; degree of damage, Lolium ([16]; 30 g of ai./ha): 70%; degree of damage, Maize ([17]; 30 g of ai./ha): 10% |
| COC(=O)c1scc(C)c1S(=O)(=O)NC(=O)n1nc(SC)n(C)c1=O [Example 6] | very strong activity against weeds |  |  |  | very strong activity against weeds |  |  |  | 0% |  |  |  |  |  |  |  |  |  |  | degree of damage, Gallium ([19]; 400 g of ai./ha): 90%; degree of damage to the plants (% damage vs untreated control), Matricaria ([3]; 125 g of ai./ha): 95%; degree of damage, Sorghum ([4]; 400 g of ai./ha): 80%; degree of damage to the plants (% damage vs untreated control), Ambrosia ([5]; 125 g of ai./ha): 95%; degree of damage, Amaranthus ([6]; 400 g of ai./ha): 100%; degree of damage, Stellaria ([7]; 400 g of ai./ha): 100%; degree of damage to the plants (% damage vs untreated control), Solanum ([8]; 125 g of ai./ha): 95%; degree of damage, Digitaria ([9]; 400 g of ai./ha): 90%; degree of damage, Matricaria ([11]; 400 g of ai./ha): 100%; degree of damage to the plants (% damage vs untreated control), Poa ([12]; 125 g of ai./ha): 95%; degree of damage, Echinochloa ([13]; 400 g of ai./ha): 95%; degree of damage to the plants (% damage vs untreated control), Lolium ([14]; 125 g of ai./ha): 95%; degree of damage to the plants (% damage vs untreated control), Sorghum ([15]; 125 g of ai./ha): 95%; degree of damage, Lolium ([16]; 400 g of ai./ha): 95%; degree of damage, Maize ([17]; 400 g of ai./ha): 20% |
| CCOC(=O)c1cccc(C)c1S(=O)(=O)NC(=O)n1nc(SC)n(C)c1=O [Example 7] | very strong activity against weeds |  |  |  | very strong activity against weeds |  |  |  | 0% | 0% | 95% | 100% | 100% | 95% | 95% | 95% | 95% | 15% |  | degree of damage to the plants (% damage vs untreated control), Matricaria ([3]; 60 g of ai./ha): 95%; degree of damage to the plants (% damage vs untreated control), Ambrosia ([5]; 60 g of ai./ha): 95%; degree of damage to the plants (% damage vs untreated control), Lolium ([14]; 60 g of ai./ha): 95%; degree of damage to the plants (% damage vs untreated control), Sorghum ([15]; 60 g of ai./ha): 95% |
| COCc1nn(C(=O)NS(=O)(=O)c2c(C)csc2C(=O)OC)c(=O)n1C1CC1 [Example 28] | very strong activity against weeds |  |  |  | very strong activity against weeds |  |  |  | 0% |  | 80% | 95% | 100% | 90% | 90% | 80% | 60% | 10% | 100% | degree of damage to the plants (% damage vs untreated control), Matricaria ([3]; 60 g of ai./ha): 95%; degree of damage to the plants (% damage vs untreated control), Ambrosia ([5]; 60 g of ai./ha): 95%; degree of damage to the plants (% damage vs untreated control), Solanum ([8]; 60 g of ai./ha): 95%; degree of damage to the plants (% damage vs untreated control), Poa ([12]; 60 g of ai./ha): 95%; degree of damage to the plants (% damage vs untreated control), Lolium ([14]; 60 g of ai./ha): 95%; degree of damage to the plants (% damage vs untreated control), Sorghum ([15]; 60 g of ai./ha): 95% |
| CCOc1nn(C(=O)NS(=O)(=O)c2c(C)cccc2C(=O)OC(C)C)c(=O)n1C [Example 44] | very strong activity against weeds |  |  |  | very strong activity against weeds |  |  |  | 30% | 0% | 95% | 100% |  | 60% | 95% | 90% | 70% | 50% | 100% | degree of damage to the plants (% damage vs untreated control), Matricaria ([3]; 8 g of ai./ha): 95%; degree of damage to the plants (% damage vs untreated control), Ambrosia ([5]; 8 g of ai./ha): 95%; degree of damage to the plants (% damage vs untreated control), Solanum ([8]; 8 g of ai./ha): 95%; degree of damage to the plants (% damage vs untreated control), Poa ([12]; 8 g of ai./ha): 95%; degree of damage to the plants (% damage vs untreated control), Lolium ([14]; 8 g of ai./ha): 95%; degree of damage to the plants (% damage vs untreated control), Sorghum ([15]; 8 g of ai./ha): 95% |
| CCOC(=O)c1scc(C)c1S(=O)(=O)NC(=O)n1nc(OCC)n(C)c1=O [Example 54] | very strong activity against weeds | 95% | 95% | 95% | very strong activity against weeds | 95% | 95% | 80% | 0% |  | 85% | 95% | 100% |  | 100% | 95% | 95% | 30% | 100% |  |
| CCSc1nn(C(=O)NS(=O)(=O)c2c(C)cccc2C(=O)OC)c(=O)n1C [Example 141] | very strong activity against weeds |  |  |  | very strong activity against weeds |  |  |  | 30% | 0% |  |  |  |  |  |  |  |  |  | degree of damage, Gallium ([19]; 30 g of ai./ha): 90%; degree of damage to the plants (% damage vs untreated control), Matricaria ([3]; 15 g of ai./ha): 80%; degree of damage, Sorghum ([4]; 30 g of ai./ha): 90%; degree of damage to the plants (% damage vs untreated control), Ambrosia ([5]; 15 g of ai./ha): 90%; degree of damage, Amaranthus ([6]; 30 g of ai./ha): 100%; degree of damage, Stellaria ([7]; 30 g of ai./ha): 95%; degree of damage to the plants (% damage vs untreated control), Solanum ([8]; 15 g of ai./ha): 90%; degree of damage, Digitaria ([9]; 30 g of ai./ha): 70%; degree of damage, Matricaria ([11]; 30 g of ai./ha): 70%; degree of damage to the plants (% damage vs untreated control), Poa ([12]; 15 g of ai./ha): 80%; degree of damage, Echinochloa ([13]; 30 g of ai./ha): 90%; degree of damage to the plants (% damage vs untreated control), Lolium ([14]; 15 g of ai./ha): 90%; degree of damage to the plants (% damage vs untreated control), Sorghum ([15]; 15 g of ai./ha): 80%; degree of damage, Maize ([17]; 30 g of ai./ha): 10% |

Reference: patent US6441195B1, “Substituted sulphonylamino(thio) carbonyl compounds” (Bayer Aktiengesellschaft, priority 1995, dated 2002)
